Results reported in patent US20240287154A1, “MC3R AGONIST PEPTIDES” (The Regents of the University of Michigan, priority 2021, published 2024).
Non-standard residues stand in square brackets, D forms with d. Residues, ends and D or L forms follow the SMILES beside them. d(αMeW) = C[C@@](N)(Cc1c[nH]c2ccccc12)C(=O)O; Phe(4-I) = N[C@@H](Cc1ccc(I)cc1)C(=O)O; Nle = CCCC[C@H](N)C(=O)O; dAbu = CC[C@@H](N)C(=O)O

Biological target: human MC4R (Homo sapiens, UniProt P32245)
Assay: Intracellular cAMP levels in live cells, MC3R selectivity relative to MC4R
Format: cell-based
Settings: cAMP assays in human MC3R and human MC4R stable cell lines
Method: The stable cell lines were grown and maintained in selection media consisting of Dulbecco's modified Eagle media (DMEM) with 4.5 g/l D-glucose, and 4 mM L-glutamine (Thermo Fisher Scientific, Waltham, MA), supplemented with 10% fetal bovine serum, 100 units/ml penicillin, 100 μg/ml streptomycin, 2.5 μg/ml amphotericin B, 200 μg/ml hygromycin B (for positive selection of the GScAMP22f luciferase reporter), and Geneticin™ (G418) 700 μg/ml (for MC3R or MC4R selection). Actual serum concentration during the assay is estimated to be about 1%. Cell line identity is routinely verified by qPCR and MC3R- and MC4R-specific oligonucleotides.
The assay for the determination of the CAMP response in live cells was described previously. […] Ccells were seeded at a density of 20,000 cells per well using 384-well poly-D lysine-coated, clear bottom, and black-wall assay plates (Corning Inc. Corning, NJ). Cells were allowed to attach to the plates for 18 to 24 h after which growth media was removed and 20 ul of 4% D-luciferin (Promega) in CO2 independent, serum-free medium (Thermo Fisher Scientific) was added to each well. […] Intracellular cAMP levels were measured using an FDSS 7000EX Functional Drug Screening System (Hamamatsu Photonics, Hamamatsu, Japan) in the Center for Chemical Genomics at the Life Sciences Institute. This instrument allowed the in-line addition of test-peptides and receptor agonists while simultaneously acquiring the luminescence signal from live cells. […] A submaximal forskolin (20 μM) concentration was also included to serve as a normalization reference to account for cell number variations and differences in assay transducer efficiency between cell lines.
With this set up it was possible to evaluate the direct agonist effect of the test-peptides on the MC3R and MC4R cell lines during measurement window 1, while the antagonist profile in the presence of EC90 α-MSH was determined on measurement window 2. […] EC50 or IC50 potency values were determined by non-linear regression by fitting the data to a sigmoid four-parameter variable slope model using the GraphPad Prism version 8.4 software package (San Diego CA).

Sequence of human MC4R (P32245 whole entry): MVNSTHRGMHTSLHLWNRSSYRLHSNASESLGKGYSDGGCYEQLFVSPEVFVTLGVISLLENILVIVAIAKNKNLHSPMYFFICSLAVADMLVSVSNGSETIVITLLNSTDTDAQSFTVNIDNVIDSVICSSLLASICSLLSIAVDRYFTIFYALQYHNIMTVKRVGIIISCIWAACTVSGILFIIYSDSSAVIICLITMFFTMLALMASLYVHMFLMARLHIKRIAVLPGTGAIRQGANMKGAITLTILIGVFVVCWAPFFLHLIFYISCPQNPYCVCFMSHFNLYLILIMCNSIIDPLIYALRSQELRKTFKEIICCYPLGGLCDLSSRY

Compared with `CCCC[C@H](NC(=O)[C@@H](NC(=O)[C@@H](N)Cc1ccc(O)cc1)C(C)C)C(=O)N[C@H](C)C(=O)N[C@@H](Cc1c[nH]cn1)C(=O)N[C@@H](Cc1ccc(I)cc1)C(=O)N[C@@H](CCCNC(=N)N)C(=O)N[C@H](Cc1c[nH]c2ccccc12)C(=O)N[C@@H](CC(=O)O)C(=O)N[C@@H](CCCNC(=N)N)C(=O)N[C@@H](Cc1ccccc1)C(=O)NCC(=O)O` [CTX-2122, Tyr-Val-Nle-D-Ala-His-Phe(4-I)-Arg-D-Trp-Asp-Arg-Phe-Gly] (H-YV[Nle][dA]H[Phe(4-I)]R[dW]DRFG-OH), `CCCC[C@H](NC(=O)[C@@H](NC(=O)[C@@H](N)Cc1ccc(O)cc1)C(C)C)C(=O)N[C@@H](C)C(=O)N[C@@H](Cc1c[nH]cn1)C(=O)N[C@@H](Cc1ccccc1)C(=O)N[C@@H](CCCNC(=N)N)C(=O)N[C@H](Cc1c[nH]c2ccccc12)C(=O)N[C@@H](CC(=O)O)C(=O)N[C@@H](CCCNC(=N)N)C(=O)N[C@@H](Cc1ccccc1)C(=O)NCC(=O)O` [CTX-1133, Tyr-Val-Nle-Ala-His-Phe-Arg-D-Trp-Asp-Arg-Phe-Gly] (H-YV[Nle]AHFR[dW]DRFG-OH) is lower in “MC3R selectivity (relative to MC4R)” value: 324 for the first, 7.4 for the second.

Compared with `CCCC[C@H](NC(=O)[C@@H](NC(=O)[C@@H](N)Cc1ccc(O)cc1)C(C)C)C(=O)NCC(=O)N[C@@H](Cc1c[nH]cn1)C(=O)N[C@H](Cc1ccccc1)C(=O)N[C@@H](CCCNC(=N)N)C(=O)N[C@H](Cc1c[nH]c2ccccc12)C(=O)N[C@@H](CC(=O)O)C(N)=O` [CTX-1107, Tyr-Val-Nle-Gly-His-D-Phe-Arg-D-Trp-Asp] (H-YV[Nle]GH[dF]R[dW]D-NH2), `CCCC[C@H](NC(=O)[C@@H](NC(=O)[C@@H](N)Cc1ccc(O)cc1)C(C)C)C(=O)N[C@H](CC)C(=O)N[C@@H](Cc1c[nH]cn1)C(=O)N[C@@H](Cc1ccccc1)C(=O)N[C@@H](CCCNC(=N)N)C(=O)N[C@H](Cc1c[nH]c2ccccc12)C(=O)N[C@@H](CC(=O)O)C(=O)N[C@@H](CCCNC(=N)N)C(=O)N[C@@H](Cc1ccccc1)C(=O)NCC(=O)O` [CTX-1135, Tyr-Val-Nle-D-Abu-His-Phe-Arg-D-Trp-Asp-Arg-Phe-Gly] (H-YV[Nle][dAbu]HFR[dW]DRFG-OH) is higher in “MC3R selectivity (relative to MC4R)” value: 2.4 for the first, 667 for the second.

Going from `CC[C@@H](NC(=O)[C@H](CCC(=O)O)NC(=O)[C@@H](NC(=O)[C@H](Cc1ccc(O)cc1)NC(C)=O)C(C)C)C(=O)N[C@@H](Cc1c[nH]cn1)C(=O)N[C@@H](Cc1ccc(I)cc1)C(=O)N[C@@H](CCCNC(=N)N)C(=O)N[C@H](Cc1c[nH]c2ccccc12)C(=O)N[C@@H](CC(=O)O)C(=O)N[C@@H](CCCNC(=N)N)C(=O)N[C@@H](Cc1ccccc1)C(=O)NCC(=O)O` [CTX-1194, Tyr-Val-Glu-D-Abu-His-Phe(4-I)-Arg-D-Trp-Asp-Arg-Phe-Gly] (Ac-YVE[dAbu]H[Phe(4-I)]R[dW]DRFG-OH) to `CCCC[C@H](NC(C)=O)C(=O)N[C@H](C)C(=O)N[C@@H](Cc1c[nH]cn1)C(=O)N[C@@H](Cc1ccccc1)C(=O)N[C@@H](CCCNC(=N)N)C(=O)N[C@](C)(Cc1c[nH]c2ccccc12)C(=O)N[C@@H](CC(=O)O)C(=O)N[C@@H](CCCNC(=N)N)C(=O)N[C@@H](Cc1ccccc1)C(=O)NCC(=O)O` [CTX-1510, Nle-D-Ala-His-Phe-Arg-aMe-D-Trp-Asp-Arg-Phe-Gly] (Ac-[Nle][dA]HFR[d(αMeW)]DRFG-OH), the “MC3R selectivity (relative to MC4R)” value falls from 49 to 23.

With `CCCC[C@H](NC(C)=O)C(=O)N[C@H](C)C(=O)N[C@@H](Cc1c[nH]cn1)C(=O)N[C@@H](Cc1ccccc1)C(=O)N[C@@H](CCCNC(=N)N)C(=O)N[C@H](Cc1c[nH]c2ccccc12)C(=O)N[C@@H](CC(=O)O)C(=O)N[C@@H](CCCNC(=N)N)C(=O)N[C@H](Cc1ccccc1)C(=O)N[C@@H](CCCCN)C(=O)O` [CTX-1160, Nle-D-Ala-His-Phe-Arg-D-Trp-Asp-Arg-D-Phe-Lys] (Ac-[Nle][dA]HFR[dW]DR[dF]K-OH) the “MC3R selectivity (relative to MC4R)” value was 1,257.
